Target: Human MAT2A (Homo sapiens (Human), UniProt P31153)
Assay: Phosphate Sensor Fluorescence Assay (MAT2A enzyme inhibition)
Format: biochemical
Conditions: L-methionine 500 uM, ATP 500 uM
Procedure: The ability of the compound of present disclosure to inhibit MAT2A enzyme was determined using the Malachite Green or Phosphate Sensor Fluorescence Assay described below.
B. Phosphate Sensor Fluorescence Assay
MAT2A enzyme is incubated with a test compound in DMSO or DMSO and its substrates (L-methionine and ATP) in a microtiter plate. The enzymatic reaction is stopped by the addition of Working Phosphate Sensor Mixture. The plate is analyzed for fluorescence at 450 nm.
Assay Buffer: 50 mM Tris, pH 7.5/50 mM KCl/10 mM MgCl2/0.01% Brij-35/1 mM DTT/0.1% BGG/40 nM PNP/6 uM 7-MEG
L-methionine: 500 uM before the addition of Working Phosphate Sensor Mixture
ATP: 500 uM before the addition of Working Phosphate Sensor Mixture
Test compounds or DMSO were added to the appropriate well suing D300e digital dispenser. 5 μl/well of Assay Buffer was added to the wells corresponding to the negative control and 5 μl/well of MAT2A was added to all the wells except for those corresponding to the negative control. After incubating the plate at room temperature for 15 minutes, 5 μl/well of the 1 mM L-methionine/1 mM ATP mixture was added to all wells. The plate was centrifuged at 1000 rpm for 1 minute and then incubated at room temperature for 1 hour. 5 μl of the Working Phosphate Sensor Mixture was added to all wells and the plate was centrifuged at 1000 rpm for 1 minute. The plate was read for fluorescence at 450 nm after exciting at 430 nm.
Percent inhibition was calculated in Chemical and Biological Information System (CBIS), (ChemInnovation Software Inc.). Curves were fitted by CBIS as % inhibition vs. log [compound concentration] using a 4-parameter inhibition model. Fit=(A+((B−A)/(1+((C/x)^D)))) Res=(y−fit)

Sequence of Human MAT2A (P31153 whole entry): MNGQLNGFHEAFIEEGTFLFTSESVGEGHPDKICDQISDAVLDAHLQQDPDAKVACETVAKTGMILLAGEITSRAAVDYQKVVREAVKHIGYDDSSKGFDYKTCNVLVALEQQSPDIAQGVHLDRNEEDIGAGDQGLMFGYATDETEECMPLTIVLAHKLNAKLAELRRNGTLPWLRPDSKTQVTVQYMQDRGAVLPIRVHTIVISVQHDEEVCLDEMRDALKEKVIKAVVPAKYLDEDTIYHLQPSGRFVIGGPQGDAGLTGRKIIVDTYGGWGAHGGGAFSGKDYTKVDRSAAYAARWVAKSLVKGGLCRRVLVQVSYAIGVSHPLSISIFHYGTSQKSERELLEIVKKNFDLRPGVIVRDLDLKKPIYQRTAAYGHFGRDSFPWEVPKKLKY

Molecule	IC50 (class symbols)	IC50 (numeric bound)
O=c1nc(N2CC[C@@H](O)C2)c2ccc(Cl)cc2n1-c1ccccc1O [compound 152]	< 200 nM	–
8-chloro-1-(2-chlorophenyl)-7- (trifluoro-methyl)pyrido[2,3- d]pyrimidine-2,4(1H,3H)-dione-1 [Example 360]	–	> 10000 nM
CCCc1ccc2c(N(C)C)nc(=O)n(-c3ccccc3)c2c1 [compound 98]	< 200 nM	–
